Test results: patent US7118895B2, “Process for producing aglycon by using diglycosidase and flavor-improved food containing the aglycon and converting agent to be used in the process” (Amano Enzyme Inc., priority 2000, dated 2006)

Test system: Crude diglycosidase
Assay: Examination of substrate concentration in the conversion into isoflavone aglycons by diglycosidase using soybean materials;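 note: percent of the isoflavone family total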
Format: biochemical, Penicillium multicolor IAM7153
Settings: concentrated soybean protein
Description: Into 20 mM acetate buffer of pH 4.0 was suspended 0.1 g, 0.25 g, 0.5 g, 1.0 g, or 1.5 g of each of various soybean materials (roasted soy flour (manufactured by Fuji Shokuryo K.K.), soymilk (manufactured by Gitoh Shokuhin K.K.), defatted soybean (manufactured by Fuji Seiyu K.K.), concentrated soybean protein (manufactured by Fuji Seiyu K.K.)). The pH of the suspension was measured and the liquid volume was adjusted to 4.5 mL while the pH was adjusted to 4.0 with 1N hydrochloric acid. An enzyme solution wherein diglycosidase activity of crude diglycosidase was adjusted to 1.88 AU/mL was added thereto in an amount of 0.5 mL, whereby the final liquid volume was 5.0 mL. Namely, the ratio of the soybean material in the reaction mixture was 2%, 5%, 10%, 20%, or 30% (w/v). The whole was reacted at 55° C. under shaking. To 5 mL of the reaction mixture was added 7 mL of ethanol after 0, 1, 3, and 6 hours of the reaction. After ultrasonication, the mixture was thoroughly mixed. It was subjected to centrifugal separation at 2,000 rpm and room temperature for 5 minutes. Then, […] of the supernatant was placed in a 1.5 mL microtube and was subjected to centrifugal separation at 15,000 rpm and 4° C. for 10 minutes. The supernatant was filtered through a filter and each sample was suitably diluted by a factor of 1 to 6 depending on the substrate concentration. Fifty μL of the diluted solution was analyzed by HLPC (Tables 27 to 38).

**Q.** What does the source list for `CC(=O)OC[C@H]1O[C@@H](Oc2ccc3c(=O)c(-c4ccc(O)cc4)coc3c2)[C@H](O)[C@@H](O)[C@@H]1O` [acetly-daidzin]?
**A.** Decomposition efficiency: ratio of each glycoside/aglycon within its isoflavone family (substrate concentration 2%, heat treatment of enzyme no, reaction time 0 h): 44.0%; Decomposition efficiency: ratio of each glycoside/aglycon within its isoflavone family (substrate concentration 2%, heat treatment of enzyme no, reaction time 1 h): 17.8%; Decomposition efficiency: ratio of each glycoside/aglycon within its isoflavone family (substrate concentration 2%, heat treatment of enzyme no, reaction time 3 h): 5.3%; Decomposition efficiency: ratio of each glycoside/aglycon within its isoflavone family (substrate concentration 2%, heat treatment of enzyme no, reaction time 6 h): not detected; Decomposition efficiency: ratio of each glycoside/aglycon within its isoflavone family (substrate concentration 2%, heat treatment of enzyme yes, reaction time 6 h): 43.2%; Decomposition efficiency: ratio of each glycoside/aglycon within its isoflavone family (substrate concentration 5%, heat treatment of enzyme no, reaction time 0 h): 44.0%; Decomposition efficiency: ratio of each glycoside/aglycon within its isoflavone family (substrate concentration 5%, heat treatment of enzyme no, reaction time 3 h): 20.5%; Decomposition efficiency: ratio of each glycoside/aglycon within its isoflavone family (substrate concentration 5%, heat treatment of enzyme no, reaction time 6 h): 12.0%; Decomposition efficiency: ratio of each glycoside/aglycon within its isoflavone family (substrate concentration 5%, heat treatment of enzyme yes, reaction time 6 h): 43.0%; Decomposition efficiency: ratio of each glycoside/aglycon within its isoflavone family (substrate concentration 10%, heat treatment of enzyme no, reaction time 0 h): 44.2%; Decomposition efficiency: ratio of each glycoside/aglycon within its isoflavone family (substrate concentration 10%, heat treatment of enzyme no, reaction time 1 h): 39.7%; Decomposition efficiency: ratio of each glycoside/aglycon within its isoflavone family (substrate concentration 10%, heat treatment of enzyme no, reaction time 3 h): 32.9%; Decomposition efficiency: ratio of each glycoside/aglycon within its isoflavone family (substrate concentration 10%, heat treatment of enzyme no, reaction time 6 h): 26.9%; Decomposition efficiency: ratio of each glycoside/aglycon within its isoflavone family (substrate concentration 10%, heat treatment of enzyme yes, reaction time 6 h): 43.4%; Decomposition efficiency: ratio of each glycoside/aglycon within its isoflavone family (substrate concentration 20%, heat treatment of enzyme no, reaction time 0 h): 44.1%; Decomposition efficiency: ratio of each glycoside/aglycon within its isoflavone family (substrate concentration 20%, heat treatment of enzyme no, reaction time 3 h): 41.5%; Decomposition efficiency: ratio of each glycoside/aglycon within its isoflavone family (substrate concentration 20%, heat treatment of enzyme no, reaction time 6 h): 37.9%; Decomposition efficiency: ratio of each glycoside/aglycon within its isoflavone family (substrate concentration 20%, heat treatment of enzyme yes, reaction time 6 h): 44.0%; Decomposition efficiency: ratio of each glycoside/aglycon within its isoflavone family (substrate concentration 30%, heat treatment of enzyme no, reaction time 0 h): 49.2%; Decomposition efficiency: ratio of each glycoside/aglycon within its isoflavone family (substrate concentration 30%, heat treatment of enzyme no, reaction time 1 h): 56.6%; Decomposition efficiency: ratio of each glycoside/aglycon within its isoflavone family (substrate concentration 30%, heat treatment of enzyme no, reaction time 3 h): 49.9%; Decomposition efficiency: ratio of each glycoside/aglycon within its isoflavone family (substrate concentration 30%, heat treatment of enzyme no, reaction time 6 h): 42.8%; Decomposition efficiency: ratio of each glycoside/aglycon within its isoflavone family (substrate concentration 30%, heat treatment of enzyme yes, reaction time 6 h): 48.4%
